US9566312B2, “Cyclic peptides and use as medicines” (priority 2012, dated 2017)
Starred links: 1 amine or outer side, 2 acyl side, 3 side chain; linkers in the order of their positions; H or OH if unused. Non-standard residues stand in square brackets, D forms with d. Residues, ends and D or L forms follow the SMILES beside them. X61 = C[C@@H]1CN(CCOC[C@@H](C)[C@@H](C(=O)[*:2])N(C)[*:1])[C@H](C)CO1; X66 = C[C@H](COCC(=O)N1CCN(C)CC1)[C@@H](C(=O)[*:2])N(C)[*:1]; X82 = C[C@H](COCCN1CCOC[C@@H]1C)[C@@H](C(=O)[*:2])N(C)[*:1]; X40 = C[C@H](COCC(=O)N1CCNCC1)[C@@H](C(=O)[*:2])N(C)[*:1]; X67 = C[C@H](CCN1CCOC[C@@H]1C)[C@@H](C(=O)[*:2])N(C)[*:1]; X52 = C[C@H](CCC(=O)N1CCOCC1)[C@@H](C(=O)[*:2])N(C)[*:1]; X43 = COCCN(C)C[C@@H](C)[C@@H](C(=O)[*:2])N(C)[*:1]; MeBmt = C/C=C/C[C@@H](C)[C@@H](O)[C@H](NC)C(=O)O; NMeL = CN[C@@H](CC(C)C)C(=O)O; NMeV = CN[C@H](C(=O)O)C(C)C; dNMeA = CN[C@H](C)C(=O)O; Abu = CC[C@H](N)C(=O)O

Columns and labels:
cyclophilin A (CypA) = cyclophilin A (CypA) (Homo sapiens (Human), UniProt P62937); experiment: Inhibitor binding to cyclophilin proteins by SPR, CypA; set-up: unit not given here; details: 1:1 binding model
cyclophilin A (CypA), sequence (P62937 whole entry): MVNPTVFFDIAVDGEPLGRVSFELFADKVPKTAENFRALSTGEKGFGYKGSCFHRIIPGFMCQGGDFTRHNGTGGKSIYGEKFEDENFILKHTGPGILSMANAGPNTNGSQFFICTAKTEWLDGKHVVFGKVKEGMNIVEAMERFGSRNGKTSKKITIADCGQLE

CypF = CypF (Homo sapiens (Human), UniProt P30405); experiment: Inhibitor binding to cyclophilin proteins by SPR, CypF; details: 1:1 binding model
CypF, sequence (P30405 30-207): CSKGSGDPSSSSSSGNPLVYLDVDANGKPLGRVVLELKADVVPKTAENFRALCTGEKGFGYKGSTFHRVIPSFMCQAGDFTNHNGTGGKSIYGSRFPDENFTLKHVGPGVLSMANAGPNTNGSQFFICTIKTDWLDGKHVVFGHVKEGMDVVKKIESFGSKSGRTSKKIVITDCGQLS
Description: (§1) Method 1: Measuring Inhibitor Binding to Cyclophilin Proteins
(§2) Binding of inhibitors to expressed cyclophilins was determined using surface plasmon resonance (SPR) experiments. Briefly, avi-tagged cyclophilin proteins with mono-biotinylation were immobilized onto a Biotin CAPture chip (GE Healthcare, cat. #28920234). SPR experiments were carried out on an upgraded Biacore T200 system using a running buffer containing the inhibitor, 10 mM HEPES, pH 7.4, 150 mM NaCl, 0.05% P20, and 3% DMSO. Single-cycle kinetics measurements were used to study the interactions between cyclophilin inhibitors and different cyclophlins. Accordingly, compound at various concentrations was injected to the flow cells with a contact time of 1 min each at a flow rate of 50 μL/min. The final dissociation phase lasts for 10 min following the sample injection. Data was analyzed using Biacore T200 Evaluation Software Version 1.0 and a 1:1 binding model was applied to fit the data to obtain kon, koff, and KD.

cyclophilin B (CypB) = cyclophilin B (CypB) (Homo sapiens (Human), UniProt P23284); experiment: Inhibitor binding to cyclophilin proteins by SPR, CypB; set-up: unit not given here; details: 1:1 binding model
cyclophilin B (CypB), sequence (P23284 34-216): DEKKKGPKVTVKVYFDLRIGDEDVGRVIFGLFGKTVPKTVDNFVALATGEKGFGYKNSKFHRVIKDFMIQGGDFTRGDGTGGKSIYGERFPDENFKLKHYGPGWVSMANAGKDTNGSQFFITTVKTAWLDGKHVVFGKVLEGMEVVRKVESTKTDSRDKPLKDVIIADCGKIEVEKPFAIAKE
Description: as §1, §2

[1] = molecular target: organic anion transporting polypeptide 1B1 (OATP1B1) (Homo sapiens (Human), UniProt Q9Y6L6); experiment: OATP assay in CHO-OATP1B1 cells;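 note: inhibition of probe substrate uptake into the cells, ten minutes exposure, accumulated substrate read by fluorescence once cells were lysed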
organic anion transporting polypeptide 1B1 (OATP1B1), sequence (Q9Y6L6 whole entry): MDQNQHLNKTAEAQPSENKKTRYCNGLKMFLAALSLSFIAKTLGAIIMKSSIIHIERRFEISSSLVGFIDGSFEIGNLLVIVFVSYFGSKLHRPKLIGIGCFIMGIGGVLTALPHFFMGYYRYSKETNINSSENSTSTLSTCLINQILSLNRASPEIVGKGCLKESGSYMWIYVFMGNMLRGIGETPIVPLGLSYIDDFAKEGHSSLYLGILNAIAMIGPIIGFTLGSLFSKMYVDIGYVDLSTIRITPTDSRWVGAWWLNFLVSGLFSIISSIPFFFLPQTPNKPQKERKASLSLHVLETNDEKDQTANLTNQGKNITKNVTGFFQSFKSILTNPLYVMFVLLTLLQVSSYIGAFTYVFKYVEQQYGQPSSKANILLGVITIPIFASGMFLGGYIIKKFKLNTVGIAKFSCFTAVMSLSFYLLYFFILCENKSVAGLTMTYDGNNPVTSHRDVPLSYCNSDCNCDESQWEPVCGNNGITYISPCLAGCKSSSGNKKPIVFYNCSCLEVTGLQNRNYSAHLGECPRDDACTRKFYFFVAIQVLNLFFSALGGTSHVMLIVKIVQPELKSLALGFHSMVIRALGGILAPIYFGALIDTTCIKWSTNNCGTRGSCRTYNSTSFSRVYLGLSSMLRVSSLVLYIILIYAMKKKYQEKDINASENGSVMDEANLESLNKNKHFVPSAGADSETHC

[2] = tested on: peripheral blood mononuclear cells (PBMC); experiment: Anti-proliferative or immunosuppressive activity, BrdU incorporation in PHA-stimulated PBMC; assay type: cell-based; details: PHA 3 μg/ml, 60 hour compound treatment; read-out: EMV PBMC IC50
Description: Method 3: Measuring Anti-Proliferative or Immunosuppressive Activity
The potential anti-proliferative activity of compounds on T-cells was analyzed based on the amount of bromodesoxy uridine (BrdU) incorporated into DNA of fresh peripheral blood mononuclear cells (PBMC) using the BrdU ELISA kit (Roche). The assay is performed in 96-well plate format with 30,000 PBMCs seeded per well in X-VIVO 15 medium (Lonza). T-cell proliferation was stimulated by addition of 3 μg/ml phytohemagglutinin (PHA) in PBMCs obtained from two donors.

[3] = tested on: genotype 1b subgenomic HCV replicon in Huh7.5 cells; assay type: cell-based, hepatitis C virus; details: genotype 1b replicon, 72 h incubation; read-out: RPLN-1b IC50
Description: Method 2: Measuring Inhibitory Effects in a HCV Replicon System
Susceptibility to compounds was analyzed in Huh7.5 cells containing genotype 1a or 1b subgenomic HCV replicons co-expressing a luciferase reporter gene. The original replicons, pFK389lucubineo_3_3′_ET and pH/SG-Neo(L+I), were licensed from ReBlicon GmbH (Germany) and Apath LLC (Saint Louis, Mo.), respectively. The firefly reporter gen was replaced by renilla luciferase reporter gene using standard molecular biology techniques as follows.
Generation of genotype 1b subgenomic replicon: The renilla […]-neomycin phosphotransferase cassette was amplified from pF9 cytomegalovirus (CMV) hRluc-Neo Flexi(R) (Promega) by PCR using Accuprime super mix II (Invitrogen) and a primer set of Ascl hRlucNeo Fwd and NotI hRluc Rev. These two primers have the following sequences and introduce restriction sites for subsequent cloning: Ascl hRlucNeo Fwd, 5 […] 3(Ascl site underlined) (SEQ. ID No. 1), and NotI hRluc Rev, 5[…] 3(NotI site underlined) (SEQ ID No. 2). The amplification product was subcloned into pCR2.1-TOPO (Invitrogen). The resulting plasmid was digested with Ascl and NotI, and the excised fragment (hRluc-Neo) was ligated with the Roche Quick Ligation Kit (Roche) into pFK1389lucubineo_3_3′_ET digested with the same enzymes.
The assay medium for both, luciferase reporter HCV replicon and cytotoxicity assays contains phenol red-free DMEM and lacks G418. […] Luciferase activity of compound treated cells is measured relative to DMSO treated cells after 72 h incubation using Renilla-Glo™ Luciferase Assay (Promega). Cytotoxicity (CC50) is analyzed using Cell Titer-Glo™ (Promega).

| Compound | CypA Kd (cyclophilin A (CypA)) | CypF Kd (CypF) | CypB Kd (cyclophilin B (CypB)) | IC50 [1] | IC50 [2] | IC50 [3] |
| --- | --- | --- | --- | --- | --- | --- |
| C/C=C/C[C@@H](C)[C@@H](O)[C@H]1C(=O)N[C@@H](CC)C(=O)N(C)[C@H](C)C(=O)N(C)[C@@H]([C@H](C)CCCN2CCC(OC)CC2)C(=O)N[C@@H](C(C)C)C(=O)N(C)[C@@H](CC(C)C)C(=O)N[C@@H](C)C(=O)N[C@H](C)C(=O)N(C)[C@@H](CC(C)C)C(=O)N(C)[C@@H](CC(C)C)C(=O)N(C)[C@@H](C(C)C)C(=O)N1C (stereo in doubt) [Compound 2.19.5, 3-[D-Ala]-4-[(2S,3R)-6-(4-methoxypiperidin-1-yl)-3-methyl-2-(methylamino)hexanoyl]-cyclosporin] | 0.7 | 0.4 nM | 0.5 | 4300 nM | 8900 nM | 80 nM |
| C/C=C/C[C@@H](C)[C@@H](O)[C@H]1C(=O)N[C@@H](CC)C(=O)N(C)[C@H](C)C(=O)N(C)[C@@H]([C@H](C)CCN2CCOC[C@@H]2C)C(=O)N[C@@H](C(C)C)C(=O)N(C)[C@@H](CC(C)C)C(=O)N[C@@H](C)C(=O)N[C@H](C)C(=O)N(C)[C@@H](CC(C)C)C(=O)N(C)[C@@H](CC(C)C)C(=O)N(C)[C@@H](C(C)C)C(=O)N1C [Compound 2.18.4] (cyclo(A[dA][NMeL][NMeL][NMeV][MeBmt][Abu][dNMeA][X67]V[NMeL])) | 1.2 | 0.7 nM | 0.7 | 1700 nM | 10600 nM | 44 nM |
| C/C=C/C[C@@H](C)[C@@H](O)[C@H]1C(=O)N[C@@H](CC)C(=O)N(C)[C@H](C)C(=O)N(C)[C@@H]([C@H](C)CN(C)CCOC)C(=O)N[C@@H](C(C)C)C(=O)N(C)[C@@H](CC(C)C)C(=O)N[C@@H](C)C(=O)N[C@H](C)C(=O)N(C)[C@@H](CC(C)C)C(=O)N(C)[C@@H](CC(C)C)C(=O)N(C)[C@@H](C(C)C)C(=O)N1C [Compound 2.5.22, 3-[D-Ala]-4-[(2S,3R)-4-((2-methoxyethyl)(methyl)amino)-3-methyl-2-(methylamino)butanoyl]-cyclosporin] (cyclo(A[dA][NMeL][NMeL][NMeV][MeBmt][Abu][dNMeA][X43]V[NMeL])) | 1.7 | 0.9 nM | 0.9 | 1900 nM | 8900 nM | 41 nM |
| C/C=C/C[C@@H](C)[C@@H](O)[C@H]1C(=O)N[C@@H](CC)C(=O)N(C)[C@H](C)C(=O)N(C)[C@@H]([C@H](C)COCCN2C[C@@H](C)OC[C@H]2C)C(=O)N[C@@H](C(C)C)C(=O)N(C)[C@@H](CC(C)C)C(=O)N[C@@H](C)C(=O)N[C@H](C)C(=O)N(C)[C@@H](CC(C)C)C(=O)N(C)[C@@H](CC(C)C)C(=O)N(C)[C@@H](C(C)C)C(=O)N1C [Compound 2.8.4, 3-[D-Ala]-4-[(2S,3S)-4-(2-((2R,5R)-2,5-dimethylmorpholino)ethoxy)-3-methyl-2-(methylamino)butanoyl]-cyclosporin] (cyclo(A[dA][NMeL][NMeL][NMeV][MeBmt][Abu][dNMeA][X61]V[NMeL])) | 0.9 | 0.7 nM | 0.7 | 3600 nM | 10700 nM | 45 nM |
| C/C=C/C[C@@H](C)[C@@H](O)[C@H]1C(=O)N[C@@H](CC)C(=O)N(C)[C@H](C)C(=O)N(C)[C@@H]([C@H](C)COCCN2CCOC[C@@H]2C)C(=O)N[C@@H](C(C)C)C(=O)N(C)[C@@H](CC(C)C)C(=O)N[C@@H](C)C(=O)N[C@H](C)C(=O)N(C)[C@@H](CC(C)C)C(=O)N(C)[C@@H](CC(C)C)C(=O)N(C)[C@@H](C(C)C)C(=O)N1C [Compound 2.8.6, 3-[D-Ala]-4-[(2S,3S)-3-methyl-2-(methylamino)-4-(2-((S)-3-methylmorpholino)ethoxy)butanoyl]-cyclosporin] (cyclo(A[dA][NMeL][NMeL][NMeV][MeBmt][Abu][dNMeA][X82]V[NMeL])) | 1.3 | 0.8 nM | 0.9 | 4800 nM | – | 13 nM |
| C/C=C/C[C@@H](C)[C@@H](O)[C@H]1C(=O)N[C@@H](CC)C(=O)N(C)[C@H](C)C(=O)N(C)[C@@H]([C@H](C)COCC(=O)N2CCNCC2)C(=O)N[C@@H](C(C)C)C(=O)N(C)[C@@H](CC(C)C)C(=O)N[C@@H](C)C(=O)N[C@H](C)C(=O)N(C)[C@@H](CC(C)C)C(=O)N(C)[C@@H](CC(C)C)C(=O)N(C)[C@@H](C(C)C)C(=O)N1C [Compound 2.6.1, 3-[D-Ala]-4-[(2S,3S)-3-methyl-2-(methylamino)-4-(2-oxo-2-(piperazin-1-yl)ethoxy)butanoyl]-cyclosporin] (cyclo(A[dA][NMeL][NMeL][NMeV][MeBmt][Abu][dNMeA][X40]V[NMeL])) | 1.0 | 0.4 nM | 0.7 | 6900 nM | – | – |
| C/C=C/C[C@@H](C)[C@@H](O)[C@H]1C(=O)N[C@@H](CC)C(=O)N(C)[C@H](C)C(=O)N(C)[C@@H]([C@H](C)CCC(=O)N2CCOCC2)C(=O)N[C@@H](C(C)C)C(=O)N(C)[C@@H](CC(C)C)C(=O)N[C@@H](C)C(=O)N[C@H](C)C(=O)N(C)[C@@H](CC(C)C)C(=O)N(C)[C@@H](CC(C)C)C(=O)N(C)[C@@H](C(C)C)C(=O)N1C [Compound 2.14.4, 3-[D-Ala]-4-[(2S,3R)-3-methyl-2-(methylamino)-6-morpholino-6-oxohexanoyl]-cyclosporin] (cyclo(A[dA][NMeL][NMeL][NMeV][MeBmt][Abu][dNMeA][X52]V[NMeL])) | 2.1 | 1.1 nM | 1.5 | 4800 nM | – | – |
| C/C=C/C[C@@H](C)[C@@H](O)[C@H]1C(=O)N[C@@H](CC)C(=O)N(C)[C@H](CC)C(=O)N(C)[C@@H]([C@H](C)COC)C(=O)N[C@@H](C(C)C)C(=O)N(C)[C@@H](CC(C)C)C(=O)N[C@@H](C)C(=O)N[C@H](C)C(=O)N(C)[C@@H](CC(C)C)C(=O)N(C)[C@@H](CC(C)C)C(=O)N(C)[C@@H](C(C)C)C(=O)N1C [Compound 3.1, 3-[(R)-2-(methylamino)butanoic acid]-4-[(2S,3S)-4-methoxy-3-methyl-2-(methylamino)butanoyl]-cyclosporin] | 3.4 | 1.9 nM | 1.6 | 2100 nM | – | – |
| C/C=C/C[C@@H](C)[C@@H](O)[C@H]1C(=O)N[C@@H](CC)C(=O)N(C)[C@H](C)C(=O)N(C)[C@@H]([C@H](C)COCC(=O)N2CCN(C)CC2)C(=O)N[C@@H](C(C)C)C(=O)N(C)[C@@H](CC(C)C)C(=O)N[C@@H](C)C(=O)N[C@H](C)C(=O)N(C)[C@@H](CC(C)C)C(=O)N(C)[C@@H](CC(C)C)C(=O)N(C)[C@@H](C(C)C)C(=O)N1C [Compound 2.6.3, 3-[D-Ala]-4-[(2S,3S)-3-methyl-2-(methylamino)-4-(2-(4-methylpiperazin-1-yl)-2-oxoethoxy)butanoyl]-cyclosporin] (cyclo(A[dA][NMeL][NMeL][NMeV][MeBmt][Abu][dNMeA][X66]V[NMeL])) | 1.5 | 0.5 nM | 0.8 | 9400 nM | – | – |
